Assays:
[1] = tested on: 5HTP-induced head twitch; assay: 5HTP-induced head twitch; assay type: in vivo, mice
Protocol: (§1) Treatment of a mammal afflicted by or susceptible to certain CNS disorders is accomplished by administration of a therapeutically-effective amount of a compound of Formula I. In particular, Compounds #1-19 of Tables I and II were evaluated by in vitro and in vivo animal model assays to determine the pharmacological properties of such compounds and their likely suitability for use as therapeutic drugs in humans. These biological assays, as described below, consisted of prevention of induced convulsions in mice, determination of acute toxicity in mice and animal behavior assays. Except as otherwise specified, the animals used in the in vivo tests were male Swiss albino mice weight 22 to 33 g [CD1, Charles River, France], housed in groups of 10 on a 12-hour dark-light cycle for at least one week before use and fasted overnight prior to testing.
Compound #18 was evaluated for inhibition of head twitches produced in mice by administration of L-5-hydroxytryptophan (5HTP, 10 mg/kg intraperitoneously) after nialamide treatment (50 mg/kg intraperitoneal, 22 hours before the test). The head twitches were counted for 45 min. starting 15 min. after 5HTP administration. [E. Friedmann & al.; Europ. J. Pharmocol., 89, 69-76 (1983)].

[2] = tested on: mice; set-up: species or system male Swiss albino mice; details: mouse, in vivo, po
Protocol: as §1
(§2) The acute toxicity of compounds of the invention was determined after oral administration of the test compound to mice. Compound to be tested was suspended in a 1% tragacanth gum mucilage, and was administered by means of an intragastric probe to a group of three male mice, which doses varied from 3,000 mg/kg down to about 3 mg/kg. Doses used in the test were determined by observing toxic effects on the mice. The mortality was recorded over a period of 15 days. The LD50 results reported in Table V were calculated according to published methods [Lichtfield and Wilcoxon, J. Pharmacol. Exp. Ther., 96, 99 (1949)] and expressed in mg or test compound per kilogram of mouse body weight.
Behavioral effects of compounds of the invention on animals were determined by observations taken at 5 to 6 hours and at 24 hours after administration of compounds in the acute toxicity studies. Determinations were made based on a method derived from that of S. Irwin [See R. A. Turner, Screening Methods in Pharmacology, Chapter 3, pages 22-34, Academic Press, N.Y. (1965)]. If an anomaly were noted, the observation was extended and smaller doses were tested. Possible types of behavior to be observed are as follows: analgesia (AAG), convulsions (CON), depression (DEP), exophthalmia (EOP), excitation (EXC), hyperalgesia (HAG), hypothermia (ATH), hypotonia (ATN), piloerection (PIE), palpebral ptosis (PTO), reduction of the pinna reflex (RPI), reduction of the rearing reflex (RRE), reduction of the flexion reflex (RRF), sedation (SED), tremors (TRE), cyanosis (CYA), diarrhea (DIA), increase of the pinna reflex (HPI), increase of the flexion reflex (HRF), dyspnea (DYS). Behaviors observed are reported in Table IV by numbers which represent the dose at which the behavior is observed.

[3] = tested on: pentylenetetrazole (PTZ)-induced convulsions; assay: Pentylenetetrazole (PTZ) induced convulsions; assay type: in vivo, male Swiss albino mice; details: Mus musculus; oral; PTZ 55 mg/kg i.v.; read-out: Inhibition of Convulsions (ED50), PZT
Protocol: as §1, with “Except as otherwise specified, the animals used in the in vivo tests were male Swiss albino mice weight 22 to 33 g [CD1, Charles River, France], housed in groups of 10 on a 12-hour dark-light cycle for at least one week before use and fasted overnight prior to testing.” left out
(§3) Compounds of Formula I were evaluated as inhibitors of convulsions and death induced by different convulsant agents: 3-mercaptopropionic acid (3-MPA; 120 mg/kg subcutaneously), pentylenetetrazole (PTZ, 55 mg/kg intravenously) and supramaximal electroconvulsive shocks (ECS evoked by a current intensity of 48 mA, 50 Hz. 0.2 sec duration, 10 msec square pulse, corneal electrodes) [W. van Dorsser, D. Barris, A. Cordi and J. Roba, Arch. […]
(§4) Based upon data generated from the previously-described anti-convulsant experiments, ED50 values were calculated at which Compound #18 inhibits convulsions induced by the convulsant agents listed in Table V.

[4] = tested on: afterdischarge-like spike activity; assay: Chronic focal epilepsy assay (cobalt powder on frontal cortex, EEG); assay type: in vivo; details: intraperitoneal, rat
From the text: In a model of chronic focal epilepsy where cobalt powder is placed on rat frontal cortex, the animals develop, after several days, chronic expression of afterdischarge-like spike activity which can be recorded by EEG.

[5] = tested on: supramaximal electroconvulsive shocks (ECS)-induced convulsions; assay: Supramaximal electroconvulsive shock (ECS) induced convulsions; assay type: in vivo, male Swiss albino mice; details: Mus musculus; oral; ECS 48 mA, 50 Hz, 0.2 sec; read-out: Inhibition of Convulsions (ED50), ECS
Protocol: as §1, with “Except as otherwise specified, the animals used in the in vivo tests were male Swiss albino mice weight 22 to 33 g [CD1, Charles River, France], housed in groups of 10 on a 12-hour dark-light cycle for at least one week before use and fasted overnight prior to testing.” left out
as §3, §4

[6] = tested on: hypomotility induced by the α2 agonist clonidine; assay: Clonidine-induced hypomotility; assay type: in vivo; details: 10 mg/kg; clonidine 150 mg/kg i.p.; eight mice, 90 min after clonidine
Protocol: as §1
Given alone, clonidine inhibits spontaneous locomotor and rearing activity. Eight test mice were treated with Compound #18 and subsequently with clonidine ([…], intraperitoneal). Then, 90 min. after clonidine administration the mice were placed in a rectangular open field of 47×53 cm, having a floor divided into 36 boxes of about 8×9 cm. The number of boxes through which the animal goes in 3 min. and the number of rearing episodes were noted.

[7] = Acute toxicity after oral administration; details: mouse, in vivo, mice, mortality over 15 days
Protocol: as §1, §2

[8] = tested on: 3-mercaptopropionic acid (3-MPA)-induced convulsions; assay: 3-MPA-induced convulsions, protection of mice; assay type: in vivo, male Swiss albino mice; details: 3-MPA 120 mg/kg s.c.; for Number of Mice Protected From 3-MPA-Induced Convulsions: total protected of two groups of 5 mice
Protocol: as §1
Compounds of Formula I were evaluated as inhibitors of convulsions and death induced by different convulsant agents: 3-mercaptopropionic acid (3-MPA; 120 mg/kg subcutaneously), pentylenetetrazole (PTZ, 55 mg/kg intravenously) and supramaximal electroconvulsive shocks (ECS evoked by a current intensity of 48 mA, 50 Hz. 0.2 sec duration, 10 msec square pulse, corneal electrodes) [W. van Dorsser, D. Barris, A. Cordi and J. Roba, Arch. Int. Pharmacodyn., 266, 239-249 (1983)]. The compounds of the invention were administered orally at a dosage of either 100 mg/kg or 30 mg/kg in a volume of 10 ml/kg each to 5 mice at intervals of 30 minutes or 2 hours before convulsions were induced. The number of mice protected against tonic convulsions and the number of dead mice were noted. Results are given in Table III as a score which represents the total number of mice protected for two groups of 5 animals (3-MPA).
as §4

| SMILES | LD50 at 360 h [7] | Number of Mice Protected From 3-MPA-Induced Convulsions ([8]; oral 30 mpk, interval 30 min) | Number of Mice Protected From 3-MPA-Induced Convulsions ([8]; oral 100 mpk, interval 30 min) | Behavior: dose at which sedation (SED) is observed [2] | also measured |
| --- | --- | --- | --- | --- | --- |
| NC(=O)CNC(c1ccccc1)c1ccccc1 [Compound 18, 2-diphenylmethylaminoacetamide] | 1020 mg/kg | 9 mice | 10 mice | – | ED50 ([1]; Mus musculus, po, 2 hours before 5HTP (10 mg/kg i.p.), nialamide pretreated mice, read-out: ED50 for inhibition of 5HTP-induced head twitches): 10 mg/kg; effect on 5HTP-induced head twitch ([1]; mice, nialamide treatment): inhibited 5HTP-induced head twitch; Behavior: dose at which depression (DEP) is observed [2]: 1000 mg/kg; Behavior: dose at which palpebral ptosis (PTO) is observed [2]: 1000 mg/kg; ED50 [3]: 66 mg/kg; time over which inhibition of spike activities was observed ([4]; threshold dose of 50 mg/kg): 14 to 90 min; minimal effective dose ([4]; ip, read-out: threshold dose for inhibiting spike activities): 50 mg/kg; ED50 [5]: 26 mg/kg; effect on clonidine-induced hypomotility [6]: seems unable to alter the hypomotility; ED50 ([8]; Mus musculus, oral, read-out: Inhibition of Convulsions (ED50), 3-MPA): 9.3 mg/kg; Number of Mice Protected From 3-MPA-Induced Convulsions ([8]; oral 100 mpk, interval 2 hr): 10 mice |
| Cc1cccc(C(NCC(N)=O)c2ccccc2)c1 (stereo not shown) [Compound 5, 2-[(3-methylphenyl)phenyl]methylaminoacetamide] | 3500 mg/kg | 2 mice | – | 1000 mg/kg | – |
| NC(=O)CNC(c1ccc(F)cc1)c1ccccc1F (stereo not shown) [Compound 11, 2-[(4-fluorophenyl)(2-fluorophenyl)]methylaminoacetamide] | 315 mg/kg | 8 mice | – | 100 mg/kg | Behavior: dose at which convulsions (CON) are observed [2]: 1000 mg/kg; Behavior: dose at which depression (DEP) is observed [2]: 1000 mg/kg |
| NC(=O)CNC(c1ccccc1)c1ccc(C(F)(F)F)cc1 (stereo not shown) [Compound 7, 2-[(4-trifluoromethylphenyl)phenyl]methylaminoacetamide] | – | 4 mice | – | – | – |
| Cc1ccccc1C(NCC(N)=O)c1ccccc1 (stereo not shown) [Compound 4, 2-[(2-methylphenyl)phenyl]methylaminoacetamide] | 780 mg/kg | 5 mice | – | 300 mg/kg | Behavior: dose at which hypotonia (ATN) is observed [2]: 300 mg/kg |
| Cc1ccc(C(NCC(N)=O)c2ccccc2)cc1 (stereo not shown) [Compound 3, 2-[(4-methylphenyl)phenyl]methylaminoacetamide] | > 3000 mg/kg | 1 mice | – | 1000 mg/kg | Behavior: dose at which depression (DEP) is observed [2]: 3000 mg/kg |
| Cc1ccc(C(NCC(N)=O)c2ccccc2)cc1C (stereo not shown) [Compound 6, 2-[(3,4-dimethylphenyl)phenyl]methylaminoacetamide] | 3500 mg/kg | 2 mice | – | 3000 mg/kg | Behavior: dose at which hypotonia (ATN) is observed [2]: 3000 mg/kg |
| NC(=O)CNC(c1ccccc1)c1ccc(Br)cc1 (stereo not shown) [Compound 10, 2-[(4-bromophenyl)phenyl]methylaminoacetamide] | > 1000 mg/kg | 3 mice | – | 1000 mg/kg | – |
| NC(=O)CNC(c1ccc(F)cc1)c1ccc(F)cc1 [Compound 13, 2-[di(4-fluorophenyl)]methylaminoacetamide] | – | 5 mice | – | – | – |
| COc1ccc(C(NCC(N)=O)c2ccccc2)cc1 (stereo not shown) [Compound 2, 2-[(4-methoxyphenyl)phenyl]methylaminoacetamide] | – | – | 8 mice | – | – |
| CCCCCNCC(N)=O [2-pentylaminoacetamide, reference compound] | – | – | – | – | effect on 5HTP-induced head twitch (comparison compound) ([1]; under similar test conditions): potentiates 5HTP-induced head twitch |
| NC(=O)CNC(c1ccccc1)c1ccc(Cl)cc1 (stereo not shown) [Compound 1, 2-[(4-chlorophenyl)phenyl]methylaminoacetamide] | 2400 mg/kg | – | 9 mice | 1000 mg/kg | Behavior: dose at which convulsions (CON) are observed [2]: 1000 mg/kg; Behavior: dose at which hypotonia (ATN) is observed [2]: 1000 mg/kg |
| NC(=O)CNC(c1ccccc1)c1cccc(Cl)c1 (stereo not shown) [Compound 15, 2-[(3-chlorophenyl)phenyl]methylaminoacetamide] | – | – | 9 mice | – | – |
| NC(=O)CNC(c1ccc(F)cc1)c1ccccc1Cl (stereo not shown) [Compound 17, 2-[(2-chlorophenyl)(4-fluoropheny)]methylaminoacetamide] | – | – | 10 mice | – | – |
| Cc1ccc(C(NCC(N)=O)c2ccccc2)c(C)c1 (stereo not shown) [Compound 14, 2-[(2,4-dimethylphenyl)phenyl]methylaminoacetamide] | – | 3 mice | 6 mice | – | – |
| NC(=O)CNC(c1ccc(Cl)cc1)c1ccc(Cl)cc1 [Compound 8, 2-[di(4-chlorophenyl)]methylaminoacetamide] | – | 1 mice | – | – | – |
| NC(=O)CNC(c1ccccc1)c1ccccc1Cl (stereo not shown) [Compound 16, 2-[(2-chlorophenyl)phenyl]methylaminoacetamide] | – | – | 9 mice | – | – |
| NC(=O)CNC(c1ccccc1)c1ccc(F)cc1 (stereo not shown) [Compound 12, 2-[(4-fluorophenyl)phenyl]methylaminoacetamide] | – | 9 mice | 10 mice | – | – |
| Cc1ccc(C)c(C(NCC(N)=O)c2ccccc2)c1 (stereo not shown) [Compound 9, 2-[(2,5-dimethylphenyl)phenyl]methylaminoacetamide] | – | 1 mice | – | – | – |

— patent publication US5278191A, “Diphenylmethylaminoacetamide derivatives as anti-convulsants” (G. D. Searle & Co., priority 1991, dated 1994)
